Paper PMC6351562, “Structure, function, and inhibition of drug reactivating human gut microbial β-glucuronidases” (Scientific Reports, 2019)
Several values for one entry are separate records, joined by “and”; a condition that tells them apart may be missing. Identical values can stand only once.

Tests used:
Test in all cases: In vitro DCF-G processing assay (UPLC)
Format in all cases: biochemical
[1] = biological target: T1, Ruminococcus gnavus GUS (RgGUS) (Mediterraneibacter gnavus, UniProt A0A2N5PVZ8); details: DCF-G as substrate, 400 µM; pH 6.5; 37 °C
T1 sequence (A0A2N5PVZ8 1-603): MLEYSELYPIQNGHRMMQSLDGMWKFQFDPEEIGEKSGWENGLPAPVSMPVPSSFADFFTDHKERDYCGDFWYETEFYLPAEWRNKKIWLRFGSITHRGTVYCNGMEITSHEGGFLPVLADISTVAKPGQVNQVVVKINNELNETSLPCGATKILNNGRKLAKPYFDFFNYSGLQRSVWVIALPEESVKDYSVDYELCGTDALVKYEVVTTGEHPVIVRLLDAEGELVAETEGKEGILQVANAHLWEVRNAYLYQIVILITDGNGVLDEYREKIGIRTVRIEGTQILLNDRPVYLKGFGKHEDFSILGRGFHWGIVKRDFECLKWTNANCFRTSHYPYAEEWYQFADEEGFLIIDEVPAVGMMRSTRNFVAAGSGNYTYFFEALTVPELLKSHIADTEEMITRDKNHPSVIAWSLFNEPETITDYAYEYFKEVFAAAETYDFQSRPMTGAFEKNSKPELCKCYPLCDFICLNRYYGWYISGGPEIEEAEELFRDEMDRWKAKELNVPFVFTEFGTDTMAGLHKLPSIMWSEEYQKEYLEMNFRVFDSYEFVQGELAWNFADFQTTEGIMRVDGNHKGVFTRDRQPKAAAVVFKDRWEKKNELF

[2] = biological target: E. coli GUS (EcGUS) (Escherichia coli, UniProt P05804); details: DCF-G as substrate, 400 µM; pH 7.4; 37 °C
Chain of E. coli GUS (EcGUS) (P05804 whole entry): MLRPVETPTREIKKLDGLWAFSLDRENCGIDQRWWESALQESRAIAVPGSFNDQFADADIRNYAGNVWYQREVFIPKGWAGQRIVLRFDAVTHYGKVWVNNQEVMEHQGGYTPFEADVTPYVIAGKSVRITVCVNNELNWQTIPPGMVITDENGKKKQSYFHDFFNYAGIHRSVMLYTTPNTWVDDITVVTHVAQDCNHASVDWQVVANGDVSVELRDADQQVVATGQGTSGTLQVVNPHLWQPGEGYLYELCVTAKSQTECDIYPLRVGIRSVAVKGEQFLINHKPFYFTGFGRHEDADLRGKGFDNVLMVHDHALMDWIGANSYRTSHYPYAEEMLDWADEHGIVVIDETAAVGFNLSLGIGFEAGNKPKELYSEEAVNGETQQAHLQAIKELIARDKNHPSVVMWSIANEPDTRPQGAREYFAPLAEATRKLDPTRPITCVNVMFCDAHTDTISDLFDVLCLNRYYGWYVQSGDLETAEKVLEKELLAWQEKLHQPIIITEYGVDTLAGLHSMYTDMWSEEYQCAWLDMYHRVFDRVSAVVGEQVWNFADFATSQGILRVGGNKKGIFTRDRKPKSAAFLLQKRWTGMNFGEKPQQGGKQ
Text: (§1) While pNPG serves as a useful tool to assess the glucuronide processing capabilities of GUS enzymes, it is not a substrate present in the GI tract. Given our hypothesis that L1 GUS enzymes efficiently process drug glucuronides, we determined using ultra performance liquid chromatography (UPLC) the cleavage rates of the novel L1 GUS enzymes FpGUS, LrGUS, RgGUS, as well as the ten additional enzymes in our GUS panel, with the physiologically relevant glucuronide metabolite of the NSAID diclofenac, DCF-G (Table 3 and Fig. S11).
(§2) Diclofenac acyl β-D-glucuronide (DCF-G) was purchased as a solid (LC Scientific Inc., Concord ON) and resuspended in DMSO to a concentration of 25 mM. […] The pH of each reaction was chosen based on the optimal pH determined for each GUS with pNPG. Reactions were quenched at 0, 1, 2, 3, 4, and 5 min with 50 µL of 25% trichloroacetic acid (TCA). For PmGUS, reactions were quenched at 0, 10, 20, 30, 40, and 50 min. After centrifugation at 13,000xg for 10 min, the resultant supernatant was subjected to UPLC analysis. The concentration of DCF-G remaining at each time point was quantified on a Waters Acquity H-class liquid chromatograph system. Samples were separated on a Waters Acquity UPLC BEH C18 column (2.1 × 50 mm, 1.7 µm particle size) at 40 °C. The flow rate was 0.6 mL/min, and the injection volume was 3 µL. LC conditions were set at 100% water with 0.1% formic acid (A) ramped linearly over 9.8 mins to 95% acetonitrile with 0.1% formic acid (B) and held until 10.2 mins. At 10.21 mins the gradient was switched back to 100% A and allowed to re-equilibrate until 11.25 mins. DCF-G was monitored at 280 nm. The concentration of DCF-G was determined from a standard curve (0–500 µM DCF-G in assay buffer). Control reactions were performed in which enzyme was substituted with buffer. Background hydrolysis was not observed at each pH tested. Reactions were performed in triplicate for each enzyme.

[3] = biological target: T2, Streptococcus agalactiae GUS (SaGUS) (Streptococcus agalactiae serotype V, UniProt Q8E0N2); details: DCF-G as substrate, 400 µM; pH 6.5; 37 °C
T2 construct: 6x His; made in house
T2 sequence (Q8E0N2 whole entry): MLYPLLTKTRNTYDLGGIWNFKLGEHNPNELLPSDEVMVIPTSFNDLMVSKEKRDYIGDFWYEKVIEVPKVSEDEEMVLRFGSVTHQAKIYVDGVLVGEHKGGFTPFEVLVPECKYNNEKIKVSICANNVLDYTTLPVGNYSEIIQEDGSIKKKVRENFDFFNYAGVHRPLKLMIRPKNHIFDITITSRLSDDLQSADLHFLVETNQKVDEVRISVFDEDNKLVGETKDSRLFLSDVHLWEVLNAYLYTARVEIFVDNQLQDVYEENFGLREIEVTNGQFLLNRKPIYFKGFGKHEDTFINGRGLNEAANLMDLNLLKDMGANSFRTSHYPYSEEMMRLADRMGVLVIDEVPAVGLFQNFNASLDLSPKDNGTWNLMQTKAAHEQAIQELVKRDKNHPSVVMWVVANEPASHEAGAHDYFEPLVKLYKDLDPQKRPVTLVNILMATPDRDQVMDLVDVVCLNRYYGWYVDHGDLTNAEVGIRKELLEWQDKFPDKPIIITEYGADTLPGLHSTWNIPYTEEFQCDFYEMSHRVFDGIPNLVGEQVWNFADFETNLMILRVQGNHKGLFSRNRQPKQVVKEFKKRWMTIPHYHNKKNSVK
Text: as §1, §2

[4] = biological target: Bacteroides fragilis GUS (BfGUS) (Bacteroides fragilis, UniProt Q5LIC7); details: DCF-G as substrate, 400 µM; pH 5.0; 37 °C
Chain of Bacteroides fragilis GUS (BfGUS) (Q5LIC7 whole entry): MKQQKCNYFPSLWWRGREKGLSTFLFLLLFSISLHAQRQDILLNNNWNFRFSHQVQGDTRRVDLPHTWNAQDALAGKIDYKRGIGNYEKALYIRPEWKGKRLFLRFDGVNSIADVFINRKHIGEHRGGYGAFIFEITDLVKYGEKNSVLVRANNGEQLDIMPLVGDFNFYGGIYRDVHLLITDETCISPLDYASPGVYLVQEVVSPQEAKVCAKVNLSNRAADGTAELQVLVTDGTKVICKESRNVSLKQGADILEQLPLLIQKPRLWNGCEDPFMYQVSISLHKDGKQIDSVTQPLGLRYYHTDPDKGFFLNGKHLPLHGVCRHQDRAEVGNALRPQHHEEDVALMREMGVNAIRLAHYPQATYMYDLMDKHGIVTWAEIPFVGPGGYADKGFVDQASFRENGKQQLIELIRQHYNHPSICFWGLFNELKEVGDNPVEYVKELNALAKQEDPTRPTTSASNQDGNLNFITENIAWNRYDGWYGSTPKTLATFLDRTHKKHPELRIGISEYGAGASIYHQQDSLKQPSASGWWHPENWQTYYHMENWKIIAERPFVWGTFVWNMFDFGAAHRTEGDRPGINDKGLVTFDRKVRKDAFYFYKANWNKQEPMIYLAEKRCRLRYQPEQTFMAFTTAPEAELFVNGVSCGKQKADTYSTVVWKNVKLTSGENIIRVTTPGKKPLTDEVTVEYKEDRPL
Text: as §1, §2

## O=C(Cc1ccccc1Nc1c(Cl)cccc1Cl)O[C@@H]1O[C@H](C(=O)O)[C@@H](O)[C@H](O)[C@H]1O [DCF-G, Diclofenac acyl β-D-glucuronide]
[1]
  Apparent kcat: 24.0 s⁻¹ and 24.0 ± 0.5 s⁻¹
[2]
  Apparent kcat: 30.7 s⁻¹ and 30.7 ± 0.7 s⁻¹
[3]
  Apparent kcat: 97 s⁻¹ and 97 ± 5 s⁻¹
[4]
  Apparent kcat: 15.1 s⁻¹ and 15.1 ± 0.5 s⁻¹
